Laboratory results published in ChEMBL document CHEMBL3044927, “Novel 4(3H)-quinazolinone analogs: synthesis and anticonvulsant activity” (Med Chem Res, 2013).
The source made the active and inactive calls. No cut-off for these calls is given here.

Key:
[1] = tested on: Mus musculus; assay: Anticonvulsant activity in Swiss albino Mus musculus (mouse) assessed as protection against PTZ-induced seizure at 1.5 mmol/kg, ip administered 30 min prior to PTZ-challenge measured up to 30 min relative to control; type: functional
[2] = tested on: Mus musculus; assay: Anticonvulsant activity in Swiss albino Mus musculus (mouse) assessed as protection against maximal electric shock-induced seizure at 1.38 mmol/kg, ip administered 30 min prior to maximal electric shock-challenge measured up to 30 min relative to control; type: functional
[3] = tested on: Mus musculus; assay: Anticonvulsant activity in Swiss albino Mus musculus (mouse) assessed as protection against bicuculline-induced seizure at 1.38 mmol/kg, ip administered 30 min prior to bicuculline-challenge measured up to 30 min relative to control; type: functional
[4] = tested on: Mus musculus; assay: Anticonvulsant activity in Swiss albino Mus musculus (mouse) assessed as protection against picrotoxin-induced seizure at 1.38 mmol/kg, ip administered 30 min prior to picrotoxin-challenge measured up to 30 min relative to control; type: functional
[5] = tested on: Mus musculus; assay: Anticonvulsant activity in Swiss albino Mus musculus (mouse) assessed as protection against PTZ-induced seizure at 1.38 mmol/kg, ip administered 30 min prior to PTZ-challenge measured up to 30 min relative to control; type: functional
[6] = tested on: Mus musculus; assay: Anticonvulsant activity in Swiss albino Mus musculus (mouse) assessed as protection against bicuculline-induced seizure at 1.5 mmol/kg, ip administered 30 min prior to bicuculline-challenge measured up to 30 min relative to control; type: functional
[7] = tested on: Mus musculus; assay: Anticonvulsant activity in Swiss albino Mus musculus (mouse) assessed as protection against maximal electric shock-induced seizure at 1.5 mmol/kg, ip administered 30 min prior to maximal electric shock-challenge measured up to 30 min relative to control; type: functional
[8] = tested on: Mus musculus; assay: Anticonvulsant activity in Swiss albino Mus musculus (mouse) assessed as protection against picrotoxin-induced seizure at 1.5 mmol/kg, ip administered 30 min prior to picrotoxin-challenge measured up to 30 min relative to control; type: functional
[9] = Toxicity against Swiss albino Mus musculus (mouse) assessed as mortality at 1.5 mmol/kg, ip; type: organism-based; details: in vivo, read-out: Activity

Structure (SMILES)	Activity [1]	also measured
Cc1ccc2nc(SCC(=O)NN3C(=O)CCC3=O)n(Cc3ccccc3)c(=O)c2c1	30%	
NNC(=O)COc1nc(-c2cccs2)nc2ccc(I)cc12	30%	
O=C(COc1nc(-c2cccs2)nc2ccc(I)cc12)NN1C(=O)c2ccccc2C1=O	30%	
O=C1c2c(Br)c(Br)c(Br)c(Br)c2C(=O)N1n1c(-c2cccs2)nc2ccc(I)cc2c1=O	30%	
CCCC(CCC)C(=O)[O-].[Na+] [VALPROATE SODIUM]		Activity [2]: 100%; Activity [3]: 100%; Activity [4]: 100%; Activity [5]: 100%
O=C1c2cccc3cccc(c23)C(=O)N1Nc1nc2ccc([N+](=O)[O-])cc2c(=O)n1Cc1ccccc1	30%	
Cc1ccc2nc(SCC(=O)NN3C(=O)c4c(Br)c(Br)c(Br)c(Br)c4C3=O)n(-c3ccccc3)c(=O)c2c1	inactive	
CCOC(=O)CSc1nc2ccc([N+](=O)[O-])cc2c(=O)n1-c1ccccc1	inactive	
O=C1c2c(Cl)c(Cl)c(Cl)c(Cl)c2C(=O)N1n1c(-c2cccs2)nc2ccc(I)cc2c1=O	inactive	
Cn1c(-c2cccs2)nc2ccc(I)cc2c1=O	100%	Activity [6]: 100%; Activity [7]: 0%
O=C1c2cccc3cccc(c23)C(=O)N1n1c(-c2cccs2)nc2ccc(I)cc2c1=O	inactive	
O=C(COc1nc(-c2cccs2)nc2ccc(I)cc12)NN1C(=O)c2c(Br)c(Br)c(Br)c(Br)c2C1=O	30%	
Cc1ccc2nc(SCC(=O)NN3C(=O)c4cccc5cccc(c45)C3=O)n(Cc3ccccc3)c(=O)c2c1	70%	Activity [8]: 80%; Activity [6]: 100%; Activity [7]: 30%
Cc1ccc2nc(SCC(=O)NN)n(-c3ccccc3)c(=O)c2c1	inactive	mortality [9]: 100%
NNc1nc2ccc([N+](=O)[O-])cc2c(=O)n1-c1ccccc1	30%	
CCOC(=O)COc1nc(-c2cccs2)nc2ccc(I)cc12	30%	
O=c1c2cc([N+](=O)[O-])ccc2nc(S)n1Cc1ccccc1	inactive	
O=C(COc1nc(-c2cccs2)nc2ccc(I)cc12)NN1C(=O)c2c(Cl)c(Cl)c(Cl)c(Cl)c2C1=O	30%	
CCOC(=O)CSc1nc2ccc([N+](=O)[O-])cc2c(=O)n1Cc1ccccc1	inactive	
